Test results as given in the supplement of paper PMC10307832.

Tests used:
Assay in all cases: relative viability (nuclei count vs DMSO), 5 days (fraction); higher = more cells survive
MK-8033 = compound: Cn1cc(-c2cnc3ccc4ccc(CS(=O)(=O)NCc5ccccn5)cc4c(=O)c3c2)cn1 [MK-8033]
In short: (§1)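 Hoechst staining, done together with fixation and permeabilisation, marked nuclei for 4× imaging and MetaXpress counting. This followed 5 days without medium change after lung cancer cell lines, kept overnight at 37 °C in 1536-well plates, were pinned with five library-drug doses (not always all listed) spaced by √10 on vehicle-anchored plates. Viability is the ratio of treated-well to vehicle-well nuclei, expressed as a median across plates. Plates passed only at control CV below 25% with at least one doubling.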

RU-SKI 43 = compound: CC[C@@H](C)CNCC(=O)N1CCC2=C([C@@H]1COC3=CC=CC(=C3)C)C=CS2 [RU-SKI 43]
In short: as §1

Irinotecan = compound: CCc1c2c(nc3ccc(OC(=O)N4CCC(N5CCCCC5)CC4)cc13)-c1cc3c(c(=O)n1C2)COC(=O)[C@]3(O)CC [Irinotecan]
In short: as §1

RU-SKI 43 + Trametinib = compound: CC[C@@H](C)CNCC(=O)N1CCC2=C([C@@H]1COC3=CC=CC(=C3)C)C=CS2 [RU-SKI 43] + CC(=O)Nc1cccc(-n2c(=O)n(C3CC3)c(=O)c3c(Nc4ccc(I)cc4F)n(C)c(=O)c(C)c32)c1 [Trametinib] (partner 0.02 µM)
In short: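 Lung cancer cell lines in 1536-well plates got either a single drug or a fixed anchor-drug dose together with five library-drug doses (not always all listed) in √10 steps, by pin tool, on the day after seeding. Nuclei were counted after 5 days, and relative viability is the treated-to-vehicle ratio of nuclei counts. Values are medians of duplicate plates.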

Row | Cell Line | relative viability (MK-8033; 0.02 µM) | relative viability (MK-8033; 0.06325 µM) | relative viability (MK-8033; 0.2 µM) | relative viability (MK-8033; 0.6325 µM) | relative viability (MK-8033; 2 µM) | relative viability (RU-SKI 43; 0.1 µM) | relative viability (RU-SKI 43; 0.3162 µM) | relative viability (RU-SKI 43; 1 µM) | relative viability (RU-SKI 43; 3.162 µM) | relative viability (RU-SKI 43; 10 µM) | relative viability (Irinotecan; 0.6325 µM) | relative viability (Irinotecan; 2 µM) | relative viability (Irinotecan; 6.325 µM) | relative viability (Irinotecan; 20 µM) | relative viability (RU-SKI 43 + Trametinib; first compound 0.1 µM) | relative viability (RU-SKI 43 + Trametinib; first compound 0.3162 µM) | relative viability (RU-SKI 43 + Trametinib; first compound 1 µM) | relative viability (RU-SKI 43 + Trametinib; first compound 3.162 µM) | relative viability (RU-SKI 43 + Trametinib; first compound 10 µM)
1 | EKVX | 0.993 | 0.858 | 0.906 | 0.935 | 1.03 | 0.873 | 0.971 | 0.977 | 0.994 | 0.965 | 0.711 | 0.804 | 0.504 | 0.261 | 0.275 | 0.312 | 0.268 | 0.349 | 0.315
2 | HCC-15 | 1.05 | 0.968 | 0.86 | 1.02 | 0.999 | 1.07 | 1.09 | 1.11 | 1.11 | 0.993 | 0.444 | 0.684 | 0.241 | 0.182 | 0.41 | 0.373 | 0.37 | 0.384 | 0.336
3 | LXF-289 | 1.02 | 0.983 | 0.955 | 1.16 | 0.995 | 1.05 | 1.08 | 1.02 | 1.1 | 0.999 | 0.892 | 0.965 | 0.659 | 0.265 | 0.682 | 0.743 | 0.728 | 0.66 | 0.66
4 | LK-2 | 0.992 | 0.885 | 0.92 | 1.01 | 1.09 | 1.09 | 1.13 | 1.31 | 1.22 | 1.06 | 1.04 | 0.956 | 0.486 | 0.282 | 0.766 | 1.01 | 0.915 | 0.828 | 0.736
5 | NCI-H2126 | 0.978 | 0.901 | 0.911 | 0.976 | 1.02 | 1.01 | 0.99 | 1.05 | 1.04 | 0.985 |  | 1.07 | 0.552 | 0.387 | 0.56 | 0.605 | 0.506 | 0.607 | 0.559
